From paper PMC6154694, “Absorption, Metabolic Stability, and Pharmacokinetics of Ginger Phytochemicals” (Molecules : A Journal of Synthetic Chemistry and Natural …, 2017)

What was measured:
[1] = Liver microsomal stability, statements across species; assay type: in vitro ADME; settings: CD1 (mouse), IGS Sprague-Dawley (rat), Beagle (dog), human, pooled liver microsomes, pH 7.4
Experimental: Pooled liver microsomes from CD1 mouse, IGS Sprague-Dawley rat, Beagle dog, and mixed gender human were used for assays. Incubations (1 mL) consisted of liver microsomes (0.5 mg/mL), NADPH (1 mM) and 100 mM sodium phosphate buffer (pH 7.4). Following pre-incubation (10 min, 37 °C), reactions were initiated by spiking ACN/DMSO (80:20) stock solutions of GE phenolics (5 μL, 10 μM). Samples (100 μL) were withdrawn at 0, 5, 10, 15, 20 and 30 min and quenched with 200 μL acetonitrile containing internal standard. Concomitant NADPH-free control incubations were prepared similarly.

[2] = Mouse pharmacokinetic study of oral GE with and without ketoconazole, plasma with and without β-glucuronidase treatment; assay type: in vivo, male mice (C57BL6J); settings: for Concentration Ratio (Total/Free) of GE Phenolics: GE administered group; for Concentration Ratio (Total/Free) of GE Phenolics / concentration at 0 h / concentration at 0.087 h / concentration at 0.167 h / concentration at 0.25 h / concentration at 0.5 h / concentration at 1 h / concentration at 2 h / concentration at 3 h / concentration at 4 h / concentration at 6 h / concentration at 8 h / concentration at 12 h: mouse plasma; for AUC(0-t) / Cmax / Tmax / concentration at 0 h / concentration at 0.087 h / concentration at 0.167 h / concentration at 0.25 h / concentration at 0.5 h / concentration at 1 h / concentration at 2 h / concentration at 3 h / concentration at 4 h / concentration at 6 h / concentration at 8 h / concentration at 12 h: male, C57BL6J; for AUC(0-t) / Cmax / Tmax: mouse, plasma, po, 250 mg/kg
Experimental: A solution formulation of GE was prepared by using 5% ethanol, 5% Tween 80, 40% polyethylene glycol, and 50% corn oil. The dose volume was 10 mL/kg and the dose administered was 250 mg/kg GE.
Pharmacokinetic study in male mice (C57BL6J, Harlan Laboratories, Indianapolis, IN, USA) was run with 36 animals in each group at a GE dose of 250 mg/kg with a dose volume of 10 mL/kg. One group was given GE alone and in the second group GE was co-administered with KTZ (50 mg/kg). A terminal sampling design was used to collect blood samples at 0 (pre-dose), 0.08, 0.16, 0.25, 0.5, 1, 2, 3, 4, 6, 8, and 12 h. At each time, 1 mL of blood was collected in ethylenediaminetetraacetic acid di-potassium salt (K2EDTA) tubes (BD Biosciences, Franklin Lakes, NJ, USA). Plasma was separated by centrifugation of samples at 4000 rpm for 10 min and stored below −60 °C till bioanalysis. All experiments were performed with approval from the Institutional Animal Care and Use Committee (IACUC, approval code: A14031). All animals were acclimatized for five days before dosing in the experimental area. Food and water was provided ad libitum throughout the study period. Animals were marked and housed (three per cage, n = 36 per group) in polypropylene cages and maintained in controlled environmental conditions with 12 h light and dark cycles. The temperature and humidity of the room was maintained between 22 ± 3 °C and 30% to 50%, respectively, and approximately 10–12 fresh air change cycles per hour.
To confirm the presence of GE glucuronide conjugates, plasma (100 μL) was treated with βgd (20 μL, 500 units) and incubated at 37 °C for 1 h. Each sample was analyzed twice with and without β-gd treatment. Samples without gde treatment were diluted with 20 μL of buffer. Total (conjugated + free) and free ginger phenolics data were reported following bioanalysis.
All in vitro and in vivo samples were processed by protein precipitation method. An aliquot (100 μL) of the sample was spiked with 200 μL of acetonitrile containing dihydrocapsaicin as internal standard (IS) and vortex mixed for 3 min. The tubes were centrifuged at 12,000 rpm for 10 min and an aliquot of supernatant was transferred into autosampler vials for analysis. The stock solutions of 6G, 8G, 10G, and 6S were prepared in ACN/water (70:30) at 1 mg/mL. A calibration curve (CC) range of 2–2000 ng/mL was employed for the quantification of analytes and IS concentration was 150 ng/mL for each analysis. The CC consisted of blank, blank with IS and seven non-zero calibration standards. The calibration standards were within ±15% of the nominal concentration and lower limit of quantification was within ±20% of nominal. All samples were analyzed using liquid chromatography tandem mass spectrometry (LC-MS/MS) method (Agilent 6410 series, Santa Clara, CA, USA). A positive ionization mode with multiple reaction monitoring (MRM, m/z Q1/Q3) of 6G (m/z 277.1/177.1, retention time (RT) 2.0 min), 8G (m/z 305.1/177.1, RT 4.0 min), 10G (m/z 333.1/177.1, RT 7.7 min), 6S (m/z 277.1/137.1, RT 5.1 min), and IS (m/z 308.2/137.1, RT 3.4 min) was employed. The ion spray voltage was set at 3500 V, ionization temperature was set to 300 °C and drying gas flow rate was 10 L/min. Data acquisition and quantitation were performed using Mass Hunter software (Agilent Technologies, Wilmington, DE, USA). Separation was achieved using HP1100 series LC (Agilent Technologies) with an Agilent Zorbax reversed-phase (SB-C18, 2.1 × 50 mm, 5.0 μm) column. A gradient method was employed to separate the individual GE phenolics using mobile phase A (0.1% formic acid in water) and mobile phase B (Acetonitrile). The gradient elution method with 50% B at 0 min, 90% B at 5 min, held for 2.1 min, back to 50% B at 7.1 min with a flow rate of 0.2 mL/min. An injection volume of 2 μL was used for analysis. […]

[3] = +KTZ +βgd, reference GE group co-administered with KTZ untreated with βgd
[4] = +KTZ +βgd, reference GE group untreated with βgd
[5] = +KTZ −βgd, reference GE group untreated with βgd
[6] = 250 mg/kg GE + 50 mg/kg KTZ oral, +KTZ −βgd
[7] = 250 mg/kg GE oral, 0.087 h, −βgd
[8] = 250 mg/kg GE oral, 0.167 h, −βgd
[9] = 250 mg/kg GE oral, 0.25 h, −βgd
[10] = 250 mg/kg GE with 50 mg/kg ketoconazole oral, 0 h, −βgd
[11] = 250 mg/kg GE with 50 mg/kg ketoconazole oral, 0.087 h, −βgd
[12] = 250 mg/kg GE with 50 mg/kg ketoconazole oral, 0.167 h, −βgd
[13] = 250 mg/kg GE with 50 mg/kg ketoconazole oral, 0.25 h, −βgd
[14] = 250 mg/kg GE with 50 mg/kg ketoconazole oral, 0.5 h, −βgd
[15] = 250 mg/kg GE with 50 mg/kg ketoconazole oral, 1 h, −βgd
[16] = 250 mg/kg GE with 50 mg/kg ketoconazole oral, 2 h, −βgd
[17] = 250 mg/kg GE with 50 mg/kg ketoconazole oral, 3 h, −βgd
[18] = 250 mg/kg GE with 50 mg/kg ketoconazole oral, 4 h, −βgd
[19] = 250 mg/kg GE with 50 mg/kg ketoconazole oral, 6 h, −βgd
[20] = 250 mg/kg GE with 50 mg/kg ketoconazole oral, 8 h, −βgd
[21] = 250 mg/kg GE with 50 mg/kg ketoconazole oral, 12 h, −βgd

CCCCC/C=C/C(=O)CCc1ccc(O)c(OC)c1 [6S, 6-shogaol]
half-life at 10 µM [1]: < 30 min
AUClast Ratio [2, 3]: 14
AUClast Ratio [2, 4]: 110
AUClast Ratio [2, 5]: 8
Concentration Ratio (Total/Free) of GE Phenolics ([2]; 0 h): 0
Concentration Ratio (Total/Free) of GE Phenolics ([2]; 0.087 h): 48
Concentration Ratio (Total/Free) of GE Phenolics ([2]; 0.167 h): 19
Concentration Ratio (Total/Free) of GE Phenolics ([2]; 0.25 h): 0
Concentration Ratio (Total/Free) of GE Phenolics ([2]; 0.5 h): 83
Concentration Ratio (Total/Free) of GE Phenolics ([2]; 1 h): 1
Concentration Ratio (Total/Free) of GE Phenolics ([2]; 2 h): 16
Concentration Ratio (Total/Free) of GE Phenolics ([2]; 3 h): 0
Concentration Ratio (Total/Free) of GE Phenolics ([2]; 4 h): 0
Concentration Ratio (Total/Free) of GE Phenolics ([2]; 6 h): 0
Concentration Ratio (Total/Free) of GE Phenolics ([2]; 8 h): 0
Concentration Ratio (Total/Free) of GE Phenolics ([2]; 12 h): 0
AUC(0-t) ([2]; 250 mg/kg GE oral, −βgd): 1.92 ng·h/mL
Cmax ([2]; 250 mg/kg GE oral, −βgd): 3.88 ng/mL
Tmax ([2]; 250 mg/kg GE oral, −βgd): 10 min
AUC(0-t) [2, 6]: 15.1 ng·h/mL
Cmax [2, 6]: 12.4 ng/mL
Tmax [2, 6]: 60 min
concentration at 0 h ([2]; 250 mg/kg GE oral, 0 h, −βgd): 0 ng/mL
concentration at 0.087 h [2, 7]: 3.17 ± 2.56 ng/mL
concentration at 0.167 h [2, 8]: 4.04 ± 5.37 ng/mL
concentration at 0.25 h [2, 9]: 0.39 ± 0.55 ng/mL
concentration at 0.5 h ([2]; 250 mg/kg GE oral, 0.5 h, −βgd): 1.26 ± 1.78 ng/mL
concentration at 1 h ([2]; 250 mg/kg GE oral, 1 h, −βgd): 0.67 ± 0.95 ng/mL
concentration at 2 h ([2]; 250 mg/kg GE oral, 2 h, −βgd): 0.38 ± 0.54 ng/mL
concentration at 3 h ([2]; 250 mg/kg GE oral, 3 h, −βgd): 0 ng/mL
concentration at 4 h ([2]; 250 mg/kg GE oral, 4 h, −βgd): 0 ng/mL
concentration at 6 h ([2]; 250 mg/kg GE oral, 6 h, −βgd): 0 ng/mL
concentration at 8 h ([2]; 250 mg/kg GE oral, 8 h, −βgd): 0.05 ± 0.08 ng/mL
concentration at 12 h ([2]; 250 mg/kg GE oral, 12 h, −βgd): 0.37 ± 0.23 ng/mL
concentration at 0 h [2, 10]: 0 ng/mL
concentration at 0.087 h [2, 11]: 0.05 ± 0.07 ng/mL
concentration at 0.167 h [2, 12]: 0.94 ± 1.33 ng/mL
concentration at 0.25 h [2, 13]: 0 ng/mL
concentration at 0.5 h [2, 14]: 18600 ng/mL
concentration at 1 h [2, 15]: 12.5 ± 17.6 ng/mL
concentration at 2 h [2, 16]: 75900 ng/mL
concentration at 3 h [2, 17]: 2.33 ± 3.3 ng/mL
concentration at 4 h [2, 18]: 0 ng/mL
concentration at 6 h [2, 19]: 0 ng/mL
concentration at 8 h [2, 20]: 0 ng/mL
concentration at 12 h [2, 21]: 0 ng/mL

CCCCCCCC(O)CC(=O)CCc1ccc(O)c(OC)c1 (centres unmarked) [8G, 8-gingerol]
half-life at 10 µM [1]: < 30 min
AUClast Ratio [2, 3]: 23
AUClast Ratio [2, 4]: 1330
AUClast Ratio [2, 5]: 59
Concentration Ratio (Total/Free) of GE Phenolics ([2]; 0 h): 0
Concentration Ratio (Total/Free) of GE Phenolics ([2]; 0.087 h): 532
Concentration Ratio (Total/Free) of GE Phenolics ([2]; 0.167 h): 439
Concentration Ratio (Total/Free) of GE Phenolics ([2]; 0.25 h): 653
Concentration Ratio (Total/Free) of GE Phenolics ([2]; 0.5 h): 948
Concentration Ratio (Total/Free) of GE Phenolics ([2]; 1 h): 16
Concentration Ratio (Total/Free) of GE Phenolics ([2]; 2 h): 44
Concentration Ratio (Total/Free) of GE Phenolics ([2]; 3 h): 29
Concentration Ratio (Total/Free) of GE Phenolics ([2]; 4 h): 14
Concentration Ratio (Total/Free) of GE Phenolics ([2]; 6 h): 23
Concentration Ratio (Total/Free) of GE Phenolics ([2]; 8 h): 0
Concentration Ratio (Total/Free) of GE Phenolics ([2]; 12 h): 0
AUC(0-t) [2, 6]: 59.1 ng·h/mL
Cmax [2, 6]: 45.7 ng/mL
Tmax [2, 6]: 30 min
concentration at 0 h ([2]; 250 mg/kg GE oral, 0 h, −βgd): 0 ng/mL
concentration at 0.087 h [2, 7]: 0.58 ± 0.45 ng/mL
concentration at 0.167 h [2, 8]: 0.2 ± 0.14 ng/mL
concentration at 0.25 h [2, 9]: 0.11 ± 0.05 ng/mL
concentration at 0.5 h ([2]; 250 mg/kg GE oral, 0.5 h, −βgd): 0.23 ± 0.08 ng/mL
concentration at 1 h ([2]; 250 mg/kg GE oral, 1 h, −βgd): 0.42 ± 0.42 ng/mL
concentration at 2 h ([2]; 250 mg/kg GE oral, 2 h, −βgd): 0.43 ± 0.11 ng/mL
concentration at 3 h ([2]; 250 mg/kg GE oral, 3 h, −βgd): 0.81 ± 0.66 ng/mL
concentration at 4 h ([2]; 250 mg/kg GE oral, 4 h, −βgd): 0.51 ± 0.33 ng/mL
concentration at 6 h ([2]; 250 mg/kg GE oral, 6 h, −βgd): 0.49 ± 0.3 ng/mL
concentration at 8 h ([2]; 250 mg/kg GE oral, 8 h, −βgd): 0.57 ± 0.23 ng/mL
concentration at 12 h ([2]; 250 mg/kg GE oral, 12 h, −βgd): 0.1 ± 0.05 ng/mL
concentration at 0 h [2, 10]: 0 ng/mL
concentration at 0.087 h [2, 11]: 0.48 ± 0.2 ng/mL
concentration at 0.167 h [2, 12]: 0.63 ± 0.12 ng/mL
concentration at 0.25 h [2, 13]: 6.93 ± 9.15 ng/mL
concentration at 0.5 h [2, 14]: 7560 ng/mL
concentration at 1 h [2, 15]: 17.9 ± 19.1 ng/mL
concentration at 2 h [2, 16]: 16300 ng/mL
concentration at 3 h [2, 17]: 11.7 ± 7.35 ng/mL
concentration at 4 h [2, 18]: 2.25 ± 1.56 ng/mL
concentration at 6 h [2, 19]: 3.71 ± 2.18 ng/mL
concentration at 8 h [2, 20]: 1.17 ± 0.11 ng/mL
concentration at 12 h [2, 21]: 0.67 ± 0.17 ng/mL
